Experimental data from the supplement of paper PMC11061612.

Assays:
Assay in all cases: combination Emax (second highest fraction inhibited in the dose matrix, 72 h); higher = more inhibition; extreme values may be limits of the assay
[1] = system: OVISE (Ovarian Carcinoma)
Summary of the method: (§1)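 After 24 hours at 37°C and 5% CO2 in 1536-well plates, cells in DMEM/F12 or RPMI plus 10% FBS received two-drug dose matrices for 72 hours. Viability came from CellTiter-Glo 2.0 luminescence and was scaled as inhibition, anchored at 0 by vehicle wells and at 1 by blank wells. Combination Emax is taken as the second-highest inhibition in the matrix, and Bliss excess as the observed combination effect less EA + EB − EA·EB, with EA and EB the single-agent effects.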

[2] = system: OCUM-1 (Gastric Carcinoma)
Summary of the method: as §1

[3] = system: LC4-1 (B-Lymphoblastic Leukemia)
Summary of the method: as §1

[4] = system: PF-382 (T-Lymphoblastic Leukemia)
Summary of the method: as §1

[5] = system: LOU-NH91 (Squamous Cell Lung Carcinoma)
Summary of the method: as §1

[6] = system: VMRC-LCD (Lung Adenocarcinoma)
Summary of the method: as §1

[7] = system: KINGS-1 (Low Grade Glioma)
Summary of the method: as §1

NH-12 (Neuroblastoma) = system: NH-12 (Neuroblastoma)
Summary of the method: as §1

[8] = system: KYSE-50 (Esophageal Squamous Cell Carcinoma)
Summary of the method: as §1

GI-1 (Glioblastoma) = system: GI-1 (Glioblastoma)
Summary of the method: as §1

[9] = system: NCI-H2347 (Lung Adenocarcinoma)
Summary of the method: as §1

[10] = system: NCI-H513 (Other Solid Carcinomas)
Summary of the method: as §1

GOTO (Neuroblastoma) = system: GOTO (Neuroblastoma)
Summary of the method: as §1

[11] = system: ASH-3 (Thyroid Gland Carcinoma)
Summary of the method: as §1

[12] = system: PFSK-1 (Other Solid Carcinomas)
Summary of the method: as §1

[13] = system: DG-75 (Burkitt's Lymphoma)
Summary of the method: as §1

[14] = system: BV-173 (Chronic Myelogenous Leukemia)
Summary of the method: as §1

[15] = system: KP-2 (Pancreatic Carcinoma)
Summary of the method: as §1

[16] = system: KYSE-150 (Esophageal Squamous Cell Carcinoma)
Summary of the method: as §1

[17] = system: EMC-BAC-2 (Non-Small Cell Lung Carcinoma)
Summary of the method: as §1

Compound	combination Emax [1]	combination Emax [2]	combination Emax [3]	combination Emax [4]	combination Emax [5]	combination Emax [6]	combination Emax [7]	combination Emax (NH-12 (Neuroblastoma))	combination Emax [8]	combination Emax (GI-1 (Glioblastoma))	combination Emax [9]	combination Emax [10]	combination Emax (GOTO (Neuroblastoma))	combination Emax [11]	combination Emax [12]	combination Emax [13]	combination Emax [14]	combination Emax [15]	combination Emax [16]	combination Emax [17]
CN(C)CCCOc1ccc(-c2ccc3ncc4c(c3c2)n(C2CCOCC2)c(=O)n4C)cn1 [AZD0156] + O=C(c1cc(Cc2n[nH]c(=O)c3ccccc23)ccc1F)N1CCN(C(=O)C2CC2)CC1 [Olaparib] (first compound max 3 µM, partner max 3 µM)	0.306	0.319	0.673	0.38	0.209	0.0443	0.176	0.177	0.195	0.336	0.268	0.194	0.306	0.194	0.424	0.481	0.764	0.152	0.295	0.486
CN(CCO)CC[C@H](CSc1ccccc1)Nc1ccc(S(=O)(=O)NC(=O)c2ccc(N3CCC([C@@H](O)c4ccccc4-c4ccc(Cl)cc4)CC3)cc2)cc1S(=O)(=O)C(F)(F)F [AZD4320] + C1CN(CCC1(C(=O)N[C@@H](CCO)C2=CC=C(C=C2)Cl)N)C3=NC=NC4=C3C=CN4 [Capivasertib] (first compound max 1 µM, 7x7, partner max 3 µM)	0.89	0.861	1	0.98	0.494	0.0578	0.49	0.886	0.0686	0.627	0.362	0.122	0.378	0.59	0.568	0.266	0.962	0.842	0.347	0.301
CN(CCO)CC[C@H](CSc1ccccc1)Nc1ccc(S(=O)(=O)NC(=O)c2ccc(N3CCC([C@@H](O)c4ccccc4-c4ccc(Cl)cc4)CC3)cc2)cc1S(=O)(=O)C(F)(F)F [AZD4320] + C=CCn1c(=O)c2cnc(Nc3ccc(N4CCN(C)CC4)cc3)nc2n1-c1cccc(C(C)(C)O)n1 [AZD1775] (first compound max 1 µM, partner max 1 µM)	0.939	0.87	1	1	0.822	0.562	0.526	0.98	0.476	1	0.571	0.707	0.855	0.531	0.742	0.82	0.958	0.912	0.432	0.425
CN(CCO)CC[C@H](CSc1ccccc1)Nc1ccc(S(=O)(=O)NC(=O)c2ccc(N3CCC([C@@H](O)c4ccccc4-c4ccc(Cl)cc4)CC3)cc2)cc1S(=O)(=O)C(F)(F)F [AZD4320] + CCN(CCO)CCCOc1ccc2c(Nc3cc(CC(=O)Nc4cccc(F)c4)[nH]n3)ncnc2c1 [AZD2811] (first compound max 1 µM, 7x7, partner max 1 µM)	0.828	0.924	1	1	0.877	0.582	0.498	0.962	0.382	0.771	0.476	0.13	0.649	0.619	0.319	0.196	0.965	0.921	0.301	0.417
CN(CCO)CC[C@H](CSc1ccccc1)Nc1ccc(S(=O)(=O)NC(=O)c2ccc(N3CCC([C@@H](O)c4ccccc4-c4ccc(Cl)cc4)CC3)cc2)cc1S(=O)(=O)C(F)(F)F [AZD4320] + CN(C)CCCOc1ccc(-c2ccc3ncc4c(c3c2)n(C2CCOCC2)c(=O)n4C)cn1 [AZD0156] (first compound max 1 µM, 7x7, partner max 1 µM)	0.806	0.734	1	0.98	0.476	0.0958	0.588	0.909	0.0706	0.342	0.45	0.143	0.481	0.498	0.375	0.336	0.95	0.897	0.206	0.185
CN(CCO)CC[C@H](CSc1ccccc1)Nc1ccc(S(=O)(=O)NC(=O)c2ccc(N3CCC([C@@H](O)c4ccccc4-c4ccc(Cl)cc4)CC3)cc2)cc1S(=O)(=O)C(F)(F)F [AZD4320] + C[C@@H]1COCCN1C2=NC(=NC(=C2)C3(CC3)[S@](=N)(=O)C)C4=C5C=CNC5=NC=C4 [AZD6738] (first compound max 1 µM, 7x7, partner max 10 µM)	0.961	0.914	1	1	0.575	0.611	0.53	1	0.686	0.982	0.656	0.452	0.909	0.662	0.781	0.768	0.953	0.897	0.614	0.632
CN(CCO)CC[C@H](CSc1ccccc1)Nc1ccc(S(=O)(=O)NC(=O)c2ccc(N3CCC([C@@H](O)c4ccccc4-c4ccc(Cl)cc4)CC3)cc2)cc1S(=O)(=O)C(F)(F)F [AZD4320] + C[C@@H](Nc1cc(F)cc(F)c1)c1cc(C(=O)N(C)C)cc2c(=O)cc(N3CCOCC3)oc12 [AZD8186] (first compound max 1 µM, 7x7, partner max 3 µM)	0.881	0.884	1	1	0.768	0.249	0.629	0.998	0.283	0.813	0.698	0.342	0.831	0.682	0.471	0.286	0.971	0.827	0.298	0.383
CN(CCO)CC[C@H](CSc1ccccc1)Nc1ccc(S(=O)(=O)NC(=O)c2ccc(N3CCC([C@@H](O)c4ccccc4-c4ccc(Cl)cc4)CC3)cc2)cc1S(=O)(=O)C(F)(F)F [AZD4320] + Cc1cc2ncnn2cc1Nc1ncc2c(n1)n(C1CCOCC1)c(=O)n2C [AZD7648] (first compound max 1 µM, 7x7, partner max 10 µM)	0.779	0.744	1	0.983	0.346	0.0704	0.466	0.927	0.096	0.457	0.432	0.269	0.633	0.542	0.397	0.472	0.961	0.857	0.478	0.258
CN(CCO)CC[C@H](CSc1ccccc1)Nc1ccc(S(=O)(=O)NC(=O)c2ccc(N3CCC([C@@H](O)c4ccccc4-c4ccc(Cl)cc4)CC3)cc2)cc1S(=O)(=O)C(F)(F)F [AZD4320] + Cn1cnc2c(F)c(Nc3ccc(Br)cc3Cl)c(C(=O)NOCCO)cc21 [Selumetinib] (first compound max 1 µM, 7x7, partner max 3 µM)	0.786	0.996	1	1	0.662	0.226	0.481	0.998	0.239	0.801	0.68	0.398	0.85	0.728	0.419	0.206	0.963	0.962	0.359	0.416
CC(=O)c1c(C)c2cnc(Nc3ccc(N4CCNCC4)cn3)nc2n(C2CCCC2)c1=O [Palbociclib] + CN(CC[C@H](CSC1=CC=CC=C1)NC2=C(C=C(C=C2)S(=O)(=O)NC(=O)C3=CC=C(C=C3)N4CCC(CC4)[C@H](C5=CC=CC=C5C6=CC=C(C=C6)Cl)O)S(=O)(=O)C(F)(F)F)CCO [AZD4320] (first compound max 10 µM, 7x7, partner max 1 µM)	0.889	–	–	1	0.618	–	–	0.988	0.37	–	0.458	0.205	0.846	0.692	0.51	0.735	0.958	0.743	0.607	0.366
C[C@@H](c1ccc2nccn2c1)n1nnc2ncc(-c3cnn(C)c3)nc21 [Savolitinib] + CN(CC[C@H](CSC1=CC=CC=C1)NC2=C(C=C(C=C2)S(=O)(=O)NC(=O)C3=CC=C(C=C3)N4CCC(CC4)[C@H](C5=CC=CC=C5C6=CC=C(C=C6)Cl)O)S(=O)(=O)C(F)(F)F)CCO [AZD4320] (first compound max 1 µM, 7x7, partner max 1 µM)	0.7	–	–	0.993	0.334	–	–	0.824	0.188	–	0.413	0.113	0.495	0.463	0.329	0.057	0.954	0.855	0.219	0.216
